{
  "source": "patent US6476043B1",
  "about": "“Use of camptothecin derivatives, with reduced gastrointestinal toxicity” (Aventis Pharma S.A., priority 1998, dated 2002)",
  "key": {"[1]": {"conditions": "mice, CPT-11 40 mg/kg i.v.; CPT-11 group versus CPT-11/NaCl group, days 1 and 5", "procedure": "The body weight is measured on days 1, 3, 6 and 8. The plasma samples for the toxicokinetic analysis are taken on days 1 and 5. […] The relative and absolute weights of the thymus, of the spleen and of the testicles are measured, and the complete gastrointestinal tract, the sternal bone marrow, the thymus, the spleen, the testicles and the epididymes are removed from all the mice and subjected to examination under a microscope."}, "[2]": {"tested_on": "CD1 male mice", "experiment": "Study I: protective effect of oral sodium chloride solution on the intestinal toxicity of intravenous CPT-11", "format": "in vivo", "experimental": "The body weight is recorded on days 1, 6, 11 and 13. […] The complete gastrointestinal tract is removed from all of the mice. The gastrointestinal tract of the mice which survived to the end of the observation period is subjected to examination under a microscope."}, "[3]": {"tested_on": "mammary adenocarcinoma MA16/C", "experiment": "Study IV: effect of oral sodium chloride solution on the antitumour activity of intravenous CPT-11", "from_the_text": "A Log tumour cell kill value of 0.7 corresponds to minimum activity, while a value greater than 2.8 corresponds to a high level of activity."}, "[4]": {"tested_on": "female Beagle dogs", "procedure": "The animals are kept with no administration for 2 days after the final administration of sodium chloride at 9 g/l (up to day 9).\nThe body weight is recorded during the pretest period and on days 5 and 9. The animals are sacrificed and autopsied on day 9. Representative tissue samples taken from the gastrointestinal tract are removed from all the animals and subjected to examination under a microscope."}},
  "data": [
    {"smiles": "CCc1c2c(nc3ccc(O)cc13)-c1cc3c(c(=O)n1C2)COC(=O)[C@]3(O)CC", "note": "[SN-38]", "values": [
      {"measurement": "areas under the curve (AUC)", "setting": "[1]", "result": "identical"},
      {"measurement": "maximum plasma concentrations (Cmax)", "setting": "[1]", "result": "identical"}
    ]},
    {"smiles": "CCc1c2c(nc3ccc(OC(=O)N4CCC(N5CCCCC5)CC4)cc13)-c1cc3c(c(=O)n1C2)COC(=O)[C@]3(O)CC", "note": "[CPT-11, irinotecan]", "values": [
      {"measurement": "areas under the curve (AUC)", "setting": "[1]", "result": "identical"},
      {"measurement": "maximum plasma concentrations (Cmax)", "setting": "[1]", "result": "identical"},
      {"measurement": "loss of body weight", "setting": "[2]; CPT-11 40 mg/kg i.v. days 6 to 10, CPT-11 group compared with CPT-11/NaCl group", "result": "greater"},
      {"measurement": "severity of microscopic intestinal lesions (loss of crypts, shortening of villi)", "setting": "[2]; CPT-11 40 mg/kg i.v. days 6 to 10, autopsy day 13, small intestine", "result": "moderate to pronounced"},
      {"measurement": "mortality linked to the administration of CPT-11", "setting": "[2]; CPT-11 40 mg/kg i.v. days 6 to 10, observed on days 6 and 7, dead/total mice", "result": "7/15"},
      {"measurement": "total cumulative dose at the maximum nontoxic dose", "setting": "[3]; C3H/HeN female mice carrying MA16/C, i.v. for 5 consecutive days", "result": 118, "unit": "mg/kg"},
      {"measurement": "maximum loss of body weight", "setting": "[3]; at the maximum nontoxic dose, day 11 (CPT-11 group), day 12 (CPT-11/NaCl group)", "result": 10, "unit": "%"},
      {"measurement": "Log cell kill value", "setting": "[3]; mammary adenocarcinoma MA16/C s.c. in C3H/HeN female mice, at the maximum nontoxic dose", "result": 1.7},
      {"measurement": "severity of gastrointestinal lesions (degeneration of the mucosa)", "setting": "[4]; CPT-11 20 mg/kg single i.v. dose on day 6, autopsy day 9", "result": "moderate to pronounced"},
      {"measurement": "redness on the mucosa of the large intestine (frequency)", "setting": "[4]; CPT-11 20 mg/kg single i.v. dose, CPT-11 group compared with CPT-11/NaCl group", "result": "more common"}
    ]}
  ]
}
